Residues, ends and D or L forms follow the SMILES beside them. No end group written: not given here. *: point of attachment. Stearoyl = CCCCCCCCCCCCCCCCCC(=O)*
Assays:
[1] = Pharmacokinetic in Göttingen minipigs after intravenous and subcutaneous injection; format: in vivo; settings: 0.5 μmol/kg
Method: The peptide was reconstituted in saline (0.9% NaCl). Three Göttingen minipigs (approximately 8-10 months of age) were used per group. Intravenous doses were administered into an ear vein at the dose of 0.5 μmol net peptide/kg. Subcutaneous doses were administered into the right flank of each animal, also at the dose of 0.5 μmol net peptide/kg. Following dosing, serial whole blood samples (ca. 0.25 mL) were collected from a jugular vein into K2EDTA treated containers. Following each blood sample collection, samples were placed into a cooling block at 4° C. Samples were collected prior to dosing then at 5 and 30 minutes then 1, 2, 4, 8, 25, 48, 72 and 96 hours post dose for intravenous injection and at 15 and 30 minutes then 1, 2, 4, 8, 25, 48, 72 and 96 hours post dose for subcutaneous injection.
Blood samples were centrifuged at 10000×g for 2 minutes at 4° C. and resultant plasma aspirated off into clean fully, labelled tubes. Plasma samples were snap frozen following aspiration then stored at −80° C. Peptide extraction and analysis were performed as described in Example 9. The limit of quantification of this method is 0.0015 nmol/mL. All values below this limit of quantification are considered as zero.

[2] = tested on: ovariectomized (OVX) rats; test: Bone biomechanical properties in ovariectomized rat (lumbar vertebrae compression, femoral neck cantilever bending); format: in vivo, Sprague-Dawley rats; settings: 3.2 mg/kg BID s.c., 6 weeks, vs OVX vehicle
Method: (§1) Effects on bone of three doses of HBD1 (3-11) with stearic acid at the N-terminus (C18:0) analog were tested in vivo in ovariectomized (OVX) rats, a recognized model for human osteoporosis, in particular postmenopausal osteoporosis. Each group included ten female Sprague-Dawley rats that were four months of age at the beginning of the in-life phase of the study. Treatment started six weeks after OVX surgery and lasted for six additional weeks. Groups were randomized before surgery according to body weight and tibial metaphysis Bone Mineral Density (BMD) as measured by peripheral quantitative computed tomography (pQCT) from Norland Stratec XCT Research SA equipment (Norland Stratec Medizintechnik, Birkenfeld, Germany).
(§2) The peptide was reconstituted in saline solution (0.9% NaCl) and administered subcutaneously twice a day at the doses of 0.8 mg/kg (low), 1.6 mg/kg (med) or 3.2 mg/kg (high) in a volume of 1 mL/kg. The control group was administered twice a day with saline by s.c. administration. Rats were weighed once a week and the volume of dosing solution administered was adjusted accordingly.
Bone biomechanical properties were determined by compression test using Instron 3343 biomechanical testing system (Instron, Norwood, Mass., USA). […]

[3] = tested on: ovariectomized (OVX) rats; test: Bone formation in ovariectomized rat, μCT of proximal tibia; format: in vivo, Sprague-Dawley rats; settings: 6 weeks
Method: as §1, §2
High-resolution micro-computed tomography (μCT) measurements using Sky Scan 1072 or 1172 High Resolution Scanner (Bruker microCT, Kontich, Belgium) were performed ex vivo in right proximal tibia at the end of the treatment period for measuring bone volume, bone cross-sectional dimensions and bone microarchitecture. FIGS. 5A, 5B and 5C show the percent increase from OVX animals HBD1 (3-11) with stearic acid at the N-terminus (C18:0) groups for following selected parameters: Bone Volume Fraction (BV/TV; %), Trabecular number (Tb.N; mm^−1) and Connectivity Density (Conn.D; mm^−3).

[4] = Pharmacokinetic of HBD1 fragments in male Sprague Dawley rats after intravenous and subcutaneous injection; format: in vivo; settings: 1 μmol net peptide/kg; for quantifiable exposure after administration by either dose route: iv and sc
Method: The peptides were reconstituted in saline (0.9% NaCl). Three male Sprague Dawley rats were used per group. Intravenous doses were administered into a lateral tail vein at the dose of 1 μmol net peptide/kg. Subcutaneous doses were administered into the right flank of each animal, also at the dose of 1 μmol net peptide/kg. Following dosing, serial whole blood samples (ca. 0.25 mL) were collected from a lateral tail vein into K2EDTA treated containers. Following each blood sample collection, samples were placed into a cooling block at 4° C. Samples were collected prior to dosing then at 2, 5, 15 and 30 minutes then 1, 2, 4, 6 and 8 and 24 hours post dose for intravenous injection and at 15 and 30 minutes then 1, 2, 4, 6, 8 and 24 hours post dose for subcutaneous injection.
Blood samples were centrifuged at 10000×g for 2 minutes at 4° C. and resultant plasma aspirated off into clean fully, labelled tubes. Plasma samples were snap frozen following aspiration then stored at −80° C. Peptides were extracted and analyzed as described in Example 9. The limits of quantification of these methods were 0.001 nmol/mL for cyclic HBD1 (3-11) and HBD1 (3-11) and 0.003 nmol/mL for HBD1 (1-13). All values below these limits of quantification were considered as zero.

[5] = Stability of HBD1 fragments in human plasma; format: in vitro ADME; settings: 24 and 48 hours incubation at 37° C.
Method: The peptides were spiked at 1 μg/mL (peptide backbone) into pre-warmed human K2EDTA plasma (at 37° C.) and incubated for up to 48 hours. Aliquots of plasma were extracted at specific time points (0, 24 and 48 hours post spike). Extraction was performed with acetonitrile:water (75:25, v/v) for HBD1 (1-13), HBD1 (1-13) with palmitic acid at the N-terminus (C16:0), HBD1 (3-11) with palmitic acid at the N-terminus (C16:0)) and HBD1 (3-11) with stearic acid at the N-terminus (C18:0) or with acetonitrile:water:formic acid (75:25:0.1, v/v/v) for HBD1 (3-11) and cyclic HBD1 (3-11). The peptides were analyzed using developed LC (C18 reverse phase column)—positive ion electrospray MS/MS methods specific to each peptide. The peak area at each time point was expressed as a percentage of the value obtained for the t=0 minutes time point.

[6] = OVX rats, s.c. twice a day 0.8, 1.6 or 3.2 mg/kg, vs OVX vehicle, dose-dependent

For `CCCCCCCCCCCCCCCCCC(=O)N[C@@H](Cc1c[nH]cn1)C(=O)N[C@@H](CC(C)C)C(=O)NCC(=O)N[C@@H](CC(C)C)C(=O)N[C@@H](CCC(=O)O)C(=O)N[C@@H](CCC(=O)O)C(=O)N1CCC[C@H]1C(=O)N[C@@H](CCCCN)C(=O)N[C@@H](CCCCN)C(=O)O` [SEQ ID NO: 73, C18:0-HLGLEEPKK] (Stearoyl-HLGLEEPKK-OH; C-terminus assumed), the “duration of exposure after subcutaneous administration” value [1] was “up to 25 hours”, the “bone strength (biomechanical properties of lumbar vertebrae and femoral neck)” value [2] was “increased bone strength” and the “effect on bone in ovariectomized rat” value ([3]; OVX Sprague-Dawley rats, s.c. twice a day, 0.8, 1.6 or 3.2 mg/kg) was “has anabolic effect on bone”. For the same compound, the “connectivity density (Conn.D) at tibial metaphysis” value [3, 6] was “increased”, the “percent bone volume fraction (BV/TV) at tibial metaphysis” value [3, 6] was “increased” and the “trabecular number (Tb.N) at tibial metaphysis” value [3, 6] was “increased”.

For `CC(C)C[C@@H]1NC(=O)CNC(=O)[C@H](CC(C)C)NC(=O)[C@H](Cc2c[nH]cn2)NC(=O)[C@H](CCCCN)NC(=O)[C@H](CCCCN)NC(=O)[C@@H]2CCCN2C(=O)[C@H](CCC(=O)O)NC(=O)[C@H](CCC(=O)O)NC1=O` [SEQ ID NO: 77, Cyclic (HLGLEEPKK)] (cyclo(EEPKKHLGL)), the “Tlast (last time point with detectable peptide)” value (from here on “Tlast”) ([4]; iv, listed as Cyclic HBD1 (3-11)) was 8 h, the “Tlast” value ([4]; sc, listed as Cyclic HBD1 (3-11)) was 4 h and the “Tlast” value ([4]; sc, listed as cyclic HBD1 (3-11)) was ≤ 4 h.

In the case of HLGLEEPKK [SEQ ID NO: 10, HLGLEEPKK], the “quantifiable exposure after administration by either dose route” value [4] is reported as “no quantifiable exposure” and the “stability in human plasma (in words)” value [5] is reported as “very stable in human plasma”.

For “KHHLGLEEPKKLR [SEQ ID NO: 1, KHHLGLEEPKKLR, reference compound]”, the “quantifiable exposure after administration by either dose route” value [4] was “no quantifiable exposure” and the “stability in human plasma (in words)” value [5] was “markedly degraded in human plasma”.

— patent publication US10947285B2, “Compounds, compositions and uses thereof for improvement of bone disorders” (Amolyt Pharma, priority 2017, dated 2021)
